US12319692B2, “Anti-influenza virus pyrimidine derivatives” (GUANGDONG RAYNOVENT BIOTECH CO., LTD., priority 2016, dated 2025)

Experiments:
[1] = tested on: Influenza virus A/Weiss/43 (H1N1); test: Influenza virus cytopathic effect (CPE) experiment in MDCK cells; assay type: cell-based; details: 120 h, 5 days, CCK8 cell viability
[2] = tested on: influenza A virus H1N1 (H1N1 A/WSN/33); test: In vivo pharmacodynamics in mouse infection model of influenza A virus H1N1; details: female BALB/c mice, H1N1 A/WSN/33, 10 mg/kg oral twice a day, day 1 to day 7, first dose 36 hours after infection

CC(C)(C)Sc1nc(-c2n[nH]c3ncc(F)cc23)nc(N[C@H]2C3CCC(CC3)[C@@H]2C(=O)O)c1F [WX-274]
EC50 [1]: 0.1 nM

CC(C)(C(=O)O)n1cc(-c2nc(-c3c[nH]c4ncc(F)cc34)nc(N[C@H]3C4CCC(CC4)[C@@H]3C(=O)O)c2F)cn1 [WX-284]
EC50 [1]: 10 nM

CC(C)(C)C#Cc1nc(-c2c[nH]c3ncc(F)cc23)nc(N[C@H]2C3CCC(CC3)[C@@H]2C(=O)O)c1F [WX-275]
EC50 [1]: 0.009 nM

O=C(O)[C@H]1C2CCC(CC2)[C@@H]1Nc1nc(-c2n[nH]c3ncc(F)cc23)nc(C2CC2(F)F)c1F (stereo partly drawn) [WX-297]
EC50 [1]: 0.024 nM | Survival Rate (percentages) [2]: 100% | Weight Losing Rate (day 9) [2]: 27.3%

COCCn1cc(-c2nc(-c3c[nH]c4ncc(F)cc34)nc(N[C@H]3C4CCC(CC4)[C@@H]3C(=O)O)c2F)cn1 [WX-283]
EC50 [1]: 0.4 nM

CN1CCN(Cc2ccc(-c3nc(-c4c[nH]c5ncc(F)cc45)nc(N[C@H]4C5CCC(CC5)[C@@H]4C(=O)O)c3F)s2)CC1 [WX-289]
EC50 [1]: 0.1 nM

Cn1cc(-c2nc(-c3n[nH]c4ncc(C(F)(F)F)cc34)nc(N[C@H]3C4CCC(CC4)[C@@H]3C(=O)O)c2F)cn1 [WX-280]
EC50 [1]: 0.055 nM

N#CC1(c2nc(-c3n[nH]c4ncc(F)cc34)nc(N[C@H]3C4CCC(CC4)[C@@H]3C(=O)O)c2F)CC1 [WX-358]
EC50 [1]: 0.6 nM

Cc1csc(-c2nc(-c3c[nH]c4ncc(F)cc34)nc(N[C@H]3C4CCC(CC4)[C@@H]3C(=O)O)c2F)c1 [WX-285]
EC50 [1]: 32 nM

CSc1nc(-c2c[nH]c3c(F)cc(F)cc23)nc(N[C@H]2C3CCC(CC3)[C@@H]2C(=O)O)c1F [WX-160]
EC50 [1]: 0.5 nM

O=C(O)[C@H]1C2CCC(CC2)[C@@H]1Nc1nc(-c2c[nH]c3ncc(F)cc23)nc(-c2ccsc2)c1F [WX-240]
EC50 [1]: 0.03 nM

Cc1noc(C)c1-c1nc(-c2c[nH]c3ncc(F)cc23)nc(N[C@H]2C3CCC(CC3)[C@@H]2C(=O)O)c1F [WX-245]
EC50 [1]: 4 nM

O=C(O)[C@H]1C2CCC(CC2)[C@@H]1Nc1nc(-c2n[nH]c3ncc(F)cc23)nc(-c2cccs2)c1F [WX-271]
EC50 [1]: 0.057 nM

N#CCn1cc(-c2nc(-c3c[nH]c4ncc(F)cc34)nc(N[C@H]3C4CCC(CC4)[C@@H]3C(=O)O)c2F)cn1 [WX-296]
EC50 [1]: 1 nM

CN1CCN(C(=O)c2ccc(-c3nc(-c4c[nH]c5ncc(F)cc45)nc(N[C@H]4C5CCC(CC5)[C@@H]4C(=O)O)c3F)s2)CC1 [WX-288]
EC50 [1]: 2.3 nM

O=C(O)[C@H]1C2CCC(CC2)[C@@H]1Nc1nc(-c2c[nH]c3ncc(F)cc23)nc(-n2ccnc2)c1F [WX-186]
EC50 [1]: 0.1 nM

CN(C)Cc1ccc(-c2nc(-c3c[nH]c4ncc(F)cc34)nc(N[C@H]3C4CCC(CC4)[C@@H]3C(=O)O)c2F)s1 [WX-279]
EC50 [1]: 0.025 nM | Survival Rate (percentages) [2]: 100% | Weight Losing Rate (day 9) [2]: 28.7%

CN1CC(n2cc(-c3nc(-c4c[nH]c5ncc(F)cc45)nc(N[C@H]4C5CCC(CC5)[C@@H]4C(=O)O)c3F)cn2)C1 [WX-293]
EC50 [1]: 8 nM

O=C(O)[C@H]1C2CCC(CC2)[C@@H]1Nc1nc(-c2c[nH]c3ncc(F)cc23)nc(-c2ccn(C(F)F)n2)c1F [WX-352]
EC50 [1]: 0.046 nM

O=C(O)[C@H]1C2CCC(CC2)[C@@H]1Nc1nc(-c2c[nH]c3ncc(F)cc23)nc(SCC(F)(F)F)c1F [WX-234]
EC50 [1]: 0.1 nM

NC1(c2nc(-c3n[nH]c4ncc(F)cc34)nc(N[C@H]3C4CCC(CC4)[C@@H]3C(=O)O)c2F)CC1 [WX-354]
EC50 [1]: 4.4 nM

N#C[C@@H]1C[C@H]1c1nc(-c2n[nH]c3ncc(F)cc23)nc(N[C@H]2C3CCC(CC3)[C@@H]2C(=O)O)c1F [WX-360]
EC50 [1]: 0.2 nM

CC(C)(C)Sc1nc(-c2c[nH]c3ncc(F)cc23)nc(N[C@H]2C3CCC(CC3)[C@@H]2C(=O)O)c1F [WX-241]
EC50 [1]: 0.01 nM

O=C(O)[C@H]1C2CCC(CC2)[C@@H]1Nc1nc(-c2n[nH]c3ncc(F)cc23)nc(-c2ccsc2)c1F [WX-269]
EC50 [1]: 0.019 nM

CSc1nc(-c2c[nH]c3ncc(F)cc23)nc(N[C@H]2C3CCC(CC3)[C@@H]2C(=O)O)c1F [WX-139]
EC50 [1]: 0.02 nM

CC(C)C#Cc1nc(-c2c[nH]c3ncc(F)cc23)nc(N[C@H]2C3CCC(CC3)[C@@H]2C(=O)O)c1F [WX-249]
EC50 [1]: 0.009 nM

O=C(O)[C@H]1C2CCC(CC2)[C@@H]1Nc1nc(-c2c[nH]c3ncc(F)cc23)nc(-c2ccc(CN3CCOCC3)s2)c1F [WX-290]
EC50 [1]: 0.041 nM | Survival Rate (percentages) [2]: 40% | Weight Losing Rate (day 9) [2]: 27.6%

Cn1cc(-c2nc(-c3n[nH]c4ncc(F)cc34)nc(N[C@H]3C4CCC(CC4)[C@@H]3C(=O)O)c2F)cn1 [WX-264]
EC50 [1]: 0.1 nM

CC(C)(C(N)=O)n1cc(-c2nc(-c3c[nH]c4ncc(F)cc34)nc(N[C@H]3C4CCC(CC4)[C@@H]3C(=O)O)c2F)cn1 [WX-286]
EC50 [1]: 3.7 nM

O=C(O)[C@H]1C2CCC(CC2)[C@@H]1Nc1nc(-c2c[nH]c3ncc(F)cc23)nc(-c2ccc(Cl)s2)c1F [WX-298]
EC50 [1]: 6.7 nM

Cc1ccc(-c2nc(-c3c[nH]c4ncc(F)cc34)nc(N[C@H]3C4CCC(CC4)[C@@H]3C(=O)O)c2F)s1 [WX-247]
EC50 [1]: 56.6 nM

CC(C)Sc1nc(-c2c[nH]c3ncc(F)cc23)nc(N[C@H]2C3CCC(CC3)[C@@H]2C(=O)O)c1F [WX-261]
EC50 [1]: 0.018 nM

CSc1nc(-c2nc(-c3c[nH]c4ncc(F)cc34)nc(N[C@H]3C4CCC(CC4)[C@@H]3C(=O)O)c2F)c[nH]1 [WX-276]
EC50 [1]: 3.6 nM

O=C(O)[C@H]1C2CCC(CC2)[C@@H]1Nc1nc(-c2n[nH]c3ncc(F)cc23)nc(C2CC2)c1F [WX-216]
EC50 [1]: 0.013 nM | Survival Rate (percentages) [2]: 100% | Weight Losing Rate (day 9) [2]: 4.8%

O=C(O)[C@H]1C2CCC(CC2)[C@@H]1Nc1nc(-c2c[nH]c3ncc(F)cc23)nc(-c2cc[nH]n2)c1F [WX-260]
EC50 [1]: 1.1 nM

CC1(c2nc(-c3n[nH]c4ncc(F)cc34)nc(N[C@H]3C4CCC(CC4)[C@@H]3C(=O)O)c2F)CC1 [WX-351]
EC50 [1]: 0.2 nM | Weight Losing Rate (day 9) [2]: 35.3%

O=C(O)[C@H]1C2CCC(CC2)[C@@H]1Nc1nc(-c2n[nH]c3ncc(F)cc23)nc(C2CC2F)c1F (stereo partly drawn) [WX-353]
EC50 [1]: 0.039 nM

CCSc1nc(-c2c[nH]c3ncc(F)cc23)nc(N[C@H]2C3CCC(CC3)[C@@H]2C(=O)O)c1F [WX-156]
EC50 [1]: 0.01 nM

O=C(O)[C@H]1C2CCC(CC2)[C@@H]1Nc1nc(-c2n[nH]c3ncc(F)cc23)nc(C2(F)CC2)c1F [WX-355]
EC50 [1]: 0.04 nM

O=C(O)[C@H]1C2CCC(CC2)[C@@H]1Nc1nc(-c2n[nH]c3ncc(F)cc23)nc(-c2cn[nH]c2)c1F [WX-265]
EC50 [1]: 2.8 nM

O=C(O)[C@H]1C2CCC(CC2)[C@@H]1Nc1nc(-c2c[nH]c3ncc(F)cc23)nc(-c2ccncc2)c1F [WX-230]
EC50 [1]: 0.1 nM

O=C(O)[C@H]1C2CCC(CC2)[C@@H]1Nc1nc(-c2c[nH]c3ncc(F)cc23)nc(-c2cnn(CCO)c2)c1F [WX-263]
EC50 [1]: 1.5 nM

N#C[C@H]1C[C@@H]1c1nc(-c2n[nH]c3ncc(F)cc23)nc(N[C@H]2C3CCC(CC3)[C@@H]2C(=O)O)c1F [WX-359]
EC50 [1]: 0.09 nM

O=C(O)[C@H]1C2CCC(CC2)[C@@H]1Nc1nc(-c2c[nH]c3ncc(F)cc23)nc(-c2cccs2)c1F [WX-236]
EC50 [1]: 0.01 nM

O=C(O)[C@H]1C2CCC(CC2)[C@@H]1Nc1nc(-c2c[nH]c3ncc(F)cc23)nc(-c2cnn(C3CC3)c2)c1F [WX-281]
EC50 [1]: 0.026 nM

CCn1cc(-c2nc(-c3c[nH]c4ncc(F)cc34)nc(N[C@H]3C4CCC(CC4)[C@@H]3C(=O)O)c2F)cn1 [WX-294]
EC50 [1]: 0.1 nM

Cn1cc(-c2nc(-c3c[nH]c4ncc(F)cc34)nc(N[C@H]3C4CCC(CC4)[C@@H]3C(=O)O)c2F)cn1 [WX-231]
EC50 [1]: 0.2 nM | Survival Rate (percentages) [2]: 100% | Weight Losing Rate (day 9) [2]: 12.9%

O=C(O)c1ccc(-c2nc(-c3c[nH]c4ncc(F)cc34)nc(N[C@H]3C4CCC(CC4)[C@@H]3C(=O)O)c2F)s1 [WX-278]
EC50 [1]: 2.7 nM

CN(C)Cc1cc(-c2nc(-c3c[nH]c4ncc(F)cc34)nc(N[C@H]3C4CCC(CC4)[C@@H]3C(=O)O)c2F)cs1 [WX-295]
EC50 [1]: 0.013 nM
